Assays:
[1] = target: T1, leukotriene D4 (longitudinal muscle of guinea pig ileum) (Cavia porcellus, UniProt Q2NNR5); assay: Longitudinal Muscle of Guinea Pig Ileum; antagonism of LTD4-induced contraction; format: cell-based; settings: 1 μM Indomethacin, 15 min with test agent, then cumulative LTD4, Arunlakshana and Schild, read-out: G.P. ILEUM pA2 (LTD4) (converted)
T1 construct: The longitudinal muscle was then carefully dissected from the circular muscle of the ileum; from tissue; host or cells: guinea pig ileum, longitudinal muscle segments
T1 sequence (Q2NNR5 1-340): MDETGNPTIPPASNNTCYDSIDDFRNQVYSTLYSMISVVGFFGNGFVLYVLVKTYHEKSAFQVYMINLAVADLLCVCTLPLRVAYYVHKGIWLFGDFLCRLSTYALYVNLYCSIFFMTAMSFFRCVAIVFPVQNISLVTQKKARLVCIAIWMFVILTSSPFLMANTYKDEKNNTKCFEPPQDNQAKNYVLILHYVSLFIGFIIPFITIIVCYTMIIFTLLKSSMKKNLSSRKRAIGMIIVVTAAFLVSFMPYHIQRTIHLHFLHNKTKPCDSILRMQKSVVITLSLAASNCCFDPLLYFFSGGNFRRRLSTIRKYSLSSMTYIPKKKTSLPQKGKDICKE
Procedure: Male, Hartley-Duncan, guinea pigs were sacrificed by cervical dislocation. The terminal portion of the ileum was removed, rinsed, and placed in Burn's modified Tyrode's solution. The longitudinal muscle was then carefully dissected from the circular muscle of the ileum. The longitudinal muscle was cut into 1-2 cm. segments which were placed in a tissue bath containing oxygenated Burn's modified Tyrode's solution warmed to 37° C. A tension of 1.0 gram was then placed on each segment of muscle. After equilibration for 1 hour, 1 μM Indomethacin was added to each bath. After 5 minutes, each tissue segment was then exposed to a concentration of 60 nM leukotriene D4. This response was then considered to be the initial maximal contraction that each segment will produce. After washing the tissue several times, over a 1 hour period, 1 μM Indomethacin was again added to each bath. After a 5 minute period the test agent or vehicle was added to the bath. After 15 minutes, a concentration-response curve was generated using cumulatively increasing concentrations of leukotriene D4. The concentration-response was then compared to the initial maximum contraction. A test compound was considered active, if at concentrations up to 100 μM, it produces a significant shift to the right of the concentration-response relationship to leukotriene D4. The antagonist activity was quantitated in terms of a pA2 value calculated according to the method described by Arunlakshana and Schild, (Brit. J. Pharmac. Chemotherap. 14; 48, 1959).

leukotriene D4 = assay: In vivo leukotriene D4 antagonist activity in anesthetized guinea pigs (modified Konzett-Rossler preparation); design: species or system guinea pig; settings: 10-20 min before 1 μg/ml LTD4 aerosol (1 min), inflation pressure response
Procedure: Compounds of the present invention were also tested for in vivo leukotriene D4 antagonist activity in anesthetized guinea pigs using a modified Konzett-Rossler preparation. Specifically, the guinea pigs were anesthetized with sodium pentobarbital and surgically prepared for artificial ventilation by a constant volume respirator. The inflation pressure produced by the respirator was measured for each inflation of the guinea pigs' lungs. Increases in inflation pressure above baseline are indicative of bronchoconstriction. After establishing a baseline inflation pressure, the guinea pig was exposed for 1 minute to an aerosol generated ultrasonically from a 1 μg/ml solution of leukotriene D4. After the inflation pressure returned to baseline, the guinea pig was exposed to an aerosol generated from a solution of a test compound. Ten to twenty minutes later, the guinea pig was re-exposed to a 1 minute aerosol generated from 1 μg/ml leukotriene D4. This response was then compared to the initial response and the % inhibition of the response was determined.

[2] = target: T2, 3H-LTD4 specific receptor (guinea pig lung membranes) (Cavia porcellus, UniProt Q2NNR5); assay: 3H-LTD4 - Specific Receptor Binding in Guinea Pig Lung Membranes; settings: inhibition of 3H-LTD4 specific binding; pH 7.6, 37° C., 20-40 min; read-out: G.P. LUNG SPECIFIC BINDING IC50
T2 construct: from tissue; host or cells: guinea pig lung membranes (30,000 g pellet)
T2 sequence (Q2NNR5 1-340): T1 sequence (Q2NNR5 1-340)
Procedure: Male guinea pigs were sacrificed and the lungs were removed and placed in ice cold 50 mM Tris-HCl buffer, pH 7.4. The lungs were then homogenized with a Polytron homogenizer and the homogenate was centrifuged at 1000 g for 10 minutes at 4° C. The supernatant was then centrifuged at 30,000 g for 15 minutes at 4° C. to obtain the membrane pellet. This pellet was resuspended in 50 mM Tris-HCl to provide the working suspension of lung membranes. Binding assays were then carried out in 50 mM Tris-HCl at pH 7.6 and 37° C. using incubation periods of 20-40 min. Separation of bound ^3 H-LTD4 from free ^3 H-LTD4 were performed by rapid vacuum filtration through Whatman GF/B glass fiber filters using ice cold Tris-HCl buffer and three 4 ml washes. Filtration and washing were completed in less than 8 seconds. The radioactivity on the filters was then measured. Specific binding of ^3 H-LTD4 was defined as the binding of ^3 H-LTD4 in the absence of unlabelled LTD4 minus the binding of ^3 H-LTD4 in the presence of 2×10^-7 M unlabelled LTD4. Specific binding of ^3 H-LTD4 was 60-80% of total binding. […] In these tests increasing concentrations of the agent are used to block the ^3 H-LTD4 specific binding. The concentration that reduces the specific binding of ^3 H-LTD4 by 50% is termed the IC50.

Q: Which results are given for `CCCCCCCCCCCCC/C=C1\CC[C@@H](CC(=O)O)[C@H](O)[C@H]1SCC(=O)O` (relative stereo) [Example 15A, (1α,2β,3α,4E)-3-[(carboxymethyl)thio]-2-hydroxy-4-tetradecylidenecyclohexaneacetic acid]?
A: Kb [1]: 3390 nM; PERCENT INHIBITION (leukotriene D4; 5 mg/ml solution aerosolized): 25.3%; PERCENT INHIBITION (leukotriene D4; 10 mg/ml solution aerosolized): 64.2%; IC50 [2]: 3000 nM

Q: What does the source list for `CCCCCCCCCCCCC/C=C1\CC[C@@H](CC(=O)O)[C@H](O)[C@H]1SCCC(=O)O` (relative stereo) [Example 15B, (1α,2β,3α,4E)-3-[(2-Carboxyethyl)thio]-2-hydroxy-4-tetradecylidenecyclohexaneacetic acid]?
A: Kb [1]: 3090 nM; PERCENT INHIBITION (leukotriene D4; 5 mg/ml solution aerosolized): 44.3%; IC50 [2]: 400 nM

Q: For `CCCCCCCCCCCCC/C=C1\CC[C@@H](CCC(=O)O)[C@@H](O)[C@@H]1SCC(=O)O` (relative stereo) [Example 15C, (1α,2α,3β,4E)-3-[(Carboxymethyl)thio]-2-hydroxy-4-tetradecylidenecyclohexanepropionic acid], which Kb [1] is on record?
A: The Kb was 1620 nM.

Q: `CCCCCCCCCCCCC/C=C1\CC[C@@H](CCC(=O)O)[C@@H](O)[C@@H]1SCCC(=O)O` (relative stereo) [Example 15D, (1α,2α,3β,4E)-3-[(2-Carboxyethyl)thio]-2-hydroxy-4-tetradecylidenecyclohexanepropionic acid] was tested. Which Kb [1] did it give?
A: Its Kb is 2000 nM.

Q: `CCCCCCCCCCCCC/C=C1\CC[C@@H](CCC(=O)O)[C@H](O)[C@H]1SCC(=O)O` (relative stereo) [Example 15E, (1α,2β,3α,4E)-3-[(Carboxymethyl)thio]-2-hydroxy-4-tetradecylidenecyclohexanepropionic acid] was tested. Which Kb [1] did it give?
A: Its Kb is 2240 nM.

Q: With `CCCCCCCCCCCCC/C=C1\CC[C@@H](CC(=O)O)[C@@H](O)[C@H]1SCC(=O)O` (relative stereo) [Example 18, (1α,2α,3α,4E)-3-[(carboxymethyl)thio]-2-hydroxy-4-tetradecylidenecyclohexaneacetic acid] as the compound, how does the Kb [1] read?
A: Its Kb is 30900 nM.
